pIC50: −log10 of the molar value.
Legend:
human thrombin = target: T1, human thrombin (Homo sapiens, UniProt P00734); assay: Inhibition of thrombin (fibrinogen substrate, fibrin formation at 405 nm); assay type: biochemical; details: for pIC50: thrombin 0.7 nM, preincubation 20° C. 10 minutes, fibrinogen, read-out: CI50 Thrombin
T1 construct: human thrombin (Sigma, specific activity 3220 NIHU/mg); purchased Sigma
Description: In order to evaluate in vitro the inhibiting activity of the boro-Arginic products on human thrombin (Sigma, specific activity 3220 NIHU/mg), purified human fibrinogen ([…], Enzyme Research Laboratories) was added to a given quantity of thrombin (0.7 nM) previously incubated with or without the inhibitor to be tested (20° C., 10 minutes).
(§1) Inhibitors, enzymes and substrates are diluted in the same buffer ([…] phosphate buffer, pH 7.4, containing 0.12M of sodium chloride and 0.05% of bovine albumin serum) and then distributed into a microplate made of polystyrene in a volume of 50 1.
(§2) The fibrin formed by the thrombin or the para-nitroanilide released by the action of the serine protease are measured spectrophotometrically at 405 nm after 5 or 30 minutes' reaction at 20° C. respectively.

[1] = test system: thrombin time (TT), plasma; assay: Anticoagulant activity, thrombin time (TT) in human plasma; assay type: biochemical, man; details: human platelet-depleted plasma, 2 min at 37° C.
Description: (§3) In the presence of a standard quantity of thrombin or of calcium thromboplastin a normal plasma coagulates in a defined and constant time, called thrombin time (TT) and prothrombin time (PT) respectively. Venous blood is collected at the elbow bend into a trisodium citrate (0.109M) solution. A plasma depleted in platelets is obtained by centrifuging the blood samples (3000 g, 15 minutes). The thrombin time is obtained with the Thrombin Prest (Stago) reagent and the prothrombin time with the Neoplastine (Stago) reagent. They are determined automatically by employing an ST4 (Stago) coagulometer. […] In these conditions the TT obtained in the control plasma is of the order of 20 seconds in man, and PT of the order of 12 seconds. The activity of an inhibitor is evaluated by its ability to lengthen these times when compared with the control. In these conditions the compounds of the invention permit a lengthening of the thrombin time and of the prothrombin time of 50-fold and more. The effect of the inhibitors is measured and the concentration which doubles the coagulation time (CTT2 for the thrombin time and CPT2 for the prothrombin time) is determined.

purified human plasmin = target: T2, purified human plasmin (Homo sapiens, UniProt P00747); assay: Inhibition of plasmin (pNA substrate S 2403); assay type: biochemical; details: enzyme 2 nM, 30 minutes at 20° C.; read-out: CI50 Plasmin
T2 construct: purified human plasmin (2 nM, Stago); purchased Stago
T2 sequence (P00747 581-810 limits assumed): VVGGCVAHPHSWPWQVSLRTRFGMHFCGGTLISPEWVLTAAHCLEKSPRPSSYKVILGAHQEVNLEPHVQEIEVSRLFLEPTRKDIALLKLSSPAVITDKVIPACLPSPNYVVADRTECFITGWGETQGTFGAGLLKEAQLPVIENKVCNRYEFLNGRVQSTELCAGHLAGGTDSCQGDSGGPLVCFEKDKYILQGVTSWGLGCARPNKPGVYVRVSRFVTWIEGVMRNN
T2 sequence (P00747 97-580 partner limits assumed): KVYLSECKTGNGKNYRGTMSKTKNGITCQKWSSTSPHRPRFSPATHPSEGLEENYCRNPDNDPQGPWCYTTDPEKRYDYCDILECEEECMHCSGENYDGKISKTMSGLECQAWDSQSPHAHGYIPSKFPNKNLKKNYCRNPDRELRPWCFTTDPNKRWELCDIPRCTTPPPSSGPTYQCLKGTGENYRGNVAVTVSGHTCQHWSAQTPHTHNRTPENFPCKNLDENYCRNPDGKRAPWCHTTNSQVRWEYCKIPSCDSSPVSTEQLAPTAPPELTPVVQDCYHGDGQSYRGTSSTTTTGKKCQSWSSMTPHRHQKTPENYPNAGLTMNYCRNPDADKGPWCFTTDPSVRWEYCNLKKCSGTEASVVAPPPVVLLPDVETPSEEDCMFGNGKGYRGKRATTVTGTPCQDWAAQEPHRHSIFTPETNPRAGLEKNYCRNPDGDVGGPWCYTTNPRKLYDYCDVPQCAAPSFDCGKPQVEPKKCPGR
Description: (§4) In order to evaluate in vitro the selectivity of these products in respect of different serine proteases of fibrinolysis and coagulation, the same protocol is applied to purified human plasmin (2 nM, Stago), to purified human activated protein C (2 nM, Stago), to purified human activated factor X (2 nM, Calbiochem), to the tissue activator of plasminogen (2 nM, Calbiochem), to purified human urokinase (2 nM, Choay), to purified human plasma kallikrein (2 nM, Calbiochem), using as substrates different peptide para-nitroanilides: <Glu-Phe-Lys-pNA (0.50mM, S 2403, Kabi) for plasmin, N-Cbo-Arg-Gly-Arg-pNA (0.39 mM, S 2765, Kabi) for the factor Xa<Glu-Pro-Arg-pNA (0.52 mM, S 2366, Kabi) for activated protein C, H-D-Pro-Phe-Arg-pNA (0.45 mM, S 2302, Kabi) for kallikrein, H-(D)-Ile-Pro-Arg-pNA (0.48 mM, S 2288, Kabi) for the tissue activator of plasminogen and <Glu-Gly-Arg-pNA (0.56 mM, S 2444, Kabi) for urokinase.
as §1, §2

[2] = test system: prothrombin time (PT), plasma; assay: Anticoagulant activity, prothrombin time (PT) in human plasma; assay type: biochemical, man; details: human platelet-depleted plasma, 2 min at 37° C., calcium thromboplastin
Description: as §3

purified human urokinase = target: T3, purified human urokinase (Homo sapiens, UniProt P00749); assay: Inhibition of urokinase (pNA substrate S 2444); assay type: biochemical; details: enzyme 2 nM, 30 minutes at 20° C.; read-out: CI50 Urokinase
T3 construct: purchased Choay
Description: as §4, §1, §2

[3] = target: T4, purified human plasma kallikrein (Homo sapiens, UniProt P03952); assay: Inhibition of plasma kallikrein (pNA substrate S 2302); assay type: biochemical; details: enzyme 2 nM, 30 minutes at 20° C.; read-out: CI50 Kalli
T4 construct: purified human plasma kallikrein (2 nM, Calbiochem); purchased Calbiochem
T4 sequence (P03952 391-638 limits assumed): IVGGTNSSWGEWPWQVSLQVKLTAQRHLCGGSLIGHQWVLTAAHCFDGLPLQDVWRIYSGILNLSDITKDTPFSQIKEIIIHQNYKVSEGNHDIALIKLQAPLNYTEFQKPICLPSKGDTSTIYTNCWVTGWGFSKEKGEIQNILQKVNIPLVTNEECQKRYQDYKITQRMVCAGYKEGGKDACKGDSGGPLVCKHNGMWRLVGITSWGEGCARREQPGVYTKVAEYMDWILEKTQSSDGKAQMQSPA
T4 sequence (P03952 20-390 partner limits assumed): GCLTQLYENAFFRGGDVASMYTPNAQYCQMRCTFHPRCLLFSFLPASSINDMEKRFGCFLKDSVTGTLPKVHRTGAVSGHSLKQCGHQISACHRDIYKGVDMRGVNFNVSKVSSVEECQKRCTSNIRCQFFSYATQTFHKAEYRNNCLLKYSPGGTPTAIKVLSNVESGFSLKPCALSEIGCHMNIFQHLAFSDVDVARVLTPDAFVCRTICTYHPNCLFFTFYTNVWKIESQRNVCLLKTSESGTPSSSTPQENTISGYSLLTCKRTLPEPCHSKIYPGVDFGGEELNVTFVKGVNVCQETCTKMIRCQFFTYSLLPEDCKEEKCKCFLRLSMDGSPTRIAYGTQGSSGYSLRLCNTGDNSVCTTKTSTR
Description: as §4, §1, §2

[4] = target: T5, tissue activator of plasminogen (Homo sapiens, UniProt P00750); assay: Inhibition of tPA (pNA substrate S 2288); assay type: biochemical; details: enzyme 2 nM, 30 minutes at 20° C.; read-out: CI50 tPA
T5 construct: purchased Calbiochem
T5 sequence (P00750 23-562 limits assumed): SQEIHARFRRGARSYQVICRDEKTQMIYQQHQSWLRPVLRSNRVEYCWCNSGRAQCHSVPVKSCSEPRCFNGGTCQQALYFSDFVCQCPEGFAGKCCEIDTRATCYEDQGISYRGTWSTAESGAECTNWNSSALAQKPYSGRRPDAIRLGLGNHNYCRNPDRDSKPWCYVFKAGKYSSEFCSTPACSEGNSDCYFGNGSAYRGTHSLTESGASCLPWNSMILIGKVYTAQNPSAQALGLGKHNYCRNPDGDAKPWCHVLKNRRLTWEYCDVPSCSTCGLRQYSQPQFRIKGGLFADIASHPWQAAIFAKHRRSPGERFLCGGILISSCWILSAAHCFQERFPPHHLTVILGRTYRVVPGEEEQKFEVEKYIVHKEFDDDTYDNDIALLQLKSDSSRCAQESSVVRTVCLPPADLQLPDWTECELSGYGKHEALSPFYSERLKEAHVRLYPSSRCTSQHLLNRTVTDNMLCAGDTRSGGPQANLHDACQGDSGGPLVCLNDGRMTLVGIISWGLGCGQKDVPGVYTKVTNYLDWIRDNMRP
Description: as §4, §1, §2

[5] = target: T6, purified human activated factor X (Homo sapiens, UniProt P00742); assay: Inhibition of factor Xa (pNA substrate S 2765); assay type: biochemical; details: enzyme 2 nM, 30 minutes at 20° C.; read-out: CI50 FXa
T6 construct: purchased Calbiochem
T6 sequence (P00742 235-488 limits assumed): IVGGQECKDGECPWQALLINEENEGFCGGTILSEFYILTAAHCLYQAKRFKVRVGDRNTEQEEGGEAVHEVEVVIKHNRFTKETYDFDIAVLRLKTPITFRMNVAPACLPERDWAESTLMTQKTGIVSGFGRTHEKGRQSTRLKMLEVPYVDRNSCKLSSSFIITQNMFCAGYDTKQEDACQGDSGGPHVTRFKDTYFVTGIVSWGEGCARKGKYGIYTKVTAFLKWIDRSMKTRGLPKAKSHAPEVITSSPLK
T6 sequence (P00742 41-179 partner limits assumed): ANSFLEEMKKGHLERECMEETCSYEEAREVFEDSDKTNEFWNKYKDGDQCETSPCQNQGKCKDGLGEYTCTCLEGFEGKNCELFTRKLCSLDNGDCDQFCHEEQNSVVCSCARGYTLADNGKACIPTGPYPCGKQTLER
Description: as §4, §1, §2

[6] = target: T7, purified human activated protein C (Homo sapiens, UniProt P04070); assay: Inhibition of activated protein C (pNA substrate S 2366); assay type: biochemical; details: enzyme 2 nM, 30 minutes at 20° C.; read-out: CI50 PCa
T7 construct: purchased Stago
T7 sequence (P04070 212-450 limits assumed): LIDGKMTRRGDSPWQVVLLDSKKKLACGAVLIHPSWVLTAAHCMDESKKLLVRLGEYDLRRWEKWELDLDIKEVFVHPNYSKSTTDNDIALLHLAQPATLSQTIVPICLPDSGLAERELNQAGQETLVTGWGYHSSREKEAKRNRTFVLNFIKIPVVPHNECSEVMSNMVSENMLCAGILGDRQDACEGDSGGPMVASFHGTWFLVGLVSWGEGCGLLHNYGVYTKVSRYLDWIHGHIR
T7 sequence (P04070 43-197 partner limits assumed): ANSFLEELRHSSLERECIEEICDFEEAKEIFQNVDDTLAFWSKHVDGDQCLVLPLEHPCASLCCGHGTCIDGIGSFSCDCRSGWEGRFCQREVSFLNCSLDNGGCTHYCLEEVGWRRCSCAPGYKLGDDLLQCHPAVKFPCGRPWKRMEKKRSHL
Description: as §4, §1, §2

[7] = test system: activated cephalin time (ACT); assay: Anticoagulant activity ex vivo, i.v. route in the dog (ACT); details: for ACT increase index: 0.5 mg/kg i.v.
Source text: The dogs are left breathing freely.

platelets [8] = assay: Number of platelets after i.v. administration in the dog; details: 0.25 mg/kg i.v.
Description: Fasted dogs are anaesthetized with pentobarbital (30 mg/kg, i.v.). A femoral artery and a saphenous vein are exposed and catheterized. The dogs are left breathing freely.

thrombin time = assay: Anticoagulant activity ex vivo, oral route in the dog (thrombin time); details: 2.5 mg/kg oral
Description: (§5) After a blood sample has been taken, the products are administered orally. At specified times after the treatment the blood is sampled intravenously. The plasma is prepared, the platelets are counted and the thrombin time test is carried out.
(§6) The activity is durable (4 hours).

platelets [9] = assay: Number of platelets after oral administration in the dog; assay type: in vivo; details: 2.5 mg/kg oral
Description: as §5, §6

[10] = test system: activated cephalin time (ACT); assay: Anticoagulant activity ex vivo, i.v. route in the rat (ACT); details: 0.25 mg/kg i.v.
Description: OFA rats, fasted or not, are anaesthetized with pentobarbital (60 mg/kg, i.p.). The carotid artery and the jugular vein are exposed and catheterized. The catheters are purged with citrated physiological saline (1/40). After installation of the catheters a sampling of 1.5 cm^3 of arterial blood is performed on 0.109 M citrate (1/9).
30 minutes later the product to be tested is administered i.v. in a volume of 1 ml.
Arterial samplings (1.5 ml) are then performed at 1 minute 30, 5, 15, 30 and 60 minutes.
At each sampling 1.5 ml of citrated physiological saline is reinjected into the animal via the carotid.
The tubes of blood are centrifuged for 5 minutes at 3000 g (preparation of the plasma).
100 1 of plasma are incubated with 100 1 of activated cephalin. The time of appearance of the coagulation phenomenon is measured after addition of 100 1 of calcium.
The results are reproduced in the following table and show the indices of increase in the coagulation time.

Compound	selectivity for thrombin versus other serine proteases, compared with DUP 714 (human thrombin; comparison of CI50 values)	pIC50 (human thrombin)	CTT2 (concentration which doubles the thrombin time) [1]	pIC50 (purified human plasmin)	CTP2 (concentration which doubles the prothrombin time) [2]	pIC50 (purified human urokinase)	pIC50 [3]	pIC50 [4]	pIC50 [5]	pIC50 [6]	other results
1-(R)-{[Ac-(R)Phe-(N-cyclopentyl)Gly]amino}-4-(1N-methylguanidino)butylboronic Acid Acetate [Example 8]	much more selective inhibitors of thrombin than DUP 714	9.13	0.30 µM	< 4.48	3.06 µM	< 4.48	5.97	6.40	< 3.48	6.34	
CC(=O)N[C@H](Cc1ccccc1)C(=O)N1CCC[C@H]1C(=O)N[C@@H](CCCN=C(N)N)B(O)O [DUP 714, Ac-(D)Phe-Pro-Arg-boronic acid, reference compound]			0.18 µM	7.62	2.63 µM	7.66	8.17	8.28	7.09	7.82	increase in the ACT ([7]; 0.25 mg/kg i.v.): comparable with that obtained with Example 2 in a dosage of 0.5 mg/kg; thrombopenia (platelets [8]): 20%
CC(=O)N[C@H](Cc1ccccc1)C(=O)N(CC(=O)N[C@@H](CCCSC(=N)N)B(O)O)C1CCCC1.CC(=O)O [Example 2, 1-(R )-{[Ac-(R)Phe-(N-cyclopentyl)Gly]amino}-4-(isothioureido)butylboronic Acid Acetate]	much more selective inhibitors of thrombin than DUP 714	9.23	0.20 µM	5.98	2.29 µM	5.60	6.79	6.97	< 4.00	6.23	thrombin inhibition compared with DUP 714 (human thrombin; comparison of CI50 values): as powerfully as DUP 7 14; ACT increase index ([7]; 1.5 minutes): 9.6; ACT increase index ([7]; 5 minutes): 3.6; ACT increase index ([7]; 15 minutes): 1.9; ACT increase index ([7]; 30 minutes): 1.4; ACT increase index ([7]; 60 minutes): 1.1; duration of activity (TT increase) (thrombin time): 4 h; increase in the TT (thrombin time; 0.5 hours): 1.1; increase in the TT (thrombin time; 1 hour): 1.6; increase in the TT (thrombin time; 2 hours): 1.5; increase in the TT (thrombin time; 4 hours): 1.1; modification of the number of platelets (platelets [9]): without modification of the number of platelets; index of increase in the coagulation time (ACT) ([10]; 1.5 minutes): 2.6; index of increase in the coagulation time (ACT) ([10]; 5 minutes): 1.8; index of increase in the coagulation time (ACT) ([10]; 15 minutes): 1.2; index of increase in the coagulation time (ACT) ([10]; 30 minutes): 1.2; index of increase in the coagulation time (ACT) ([10]; 60 minutes): 1.1
CC(=O)NC(Cc1ccccc1)C(=O)N(CC(=O)N[C@@H](CCCSC(=N)N)B(O)O)C1CCCCC1.CC(=O)O (stereo partly drawn) [Example 4, 1-(R)-{[Ac-(R,S)Phe-(N-cyclohexyl)Gly]amino}-4-(isothioureido) butylboronic Acid Acetate]			0.34 µM		2.44 µM						
CC(=O)N[C@H](Cc1ccccc1)C(=O)N(CC(=O)N[C@@H](CCCSC(=N)N)B(O)O)C1CCCCC1.CC(=O)O [Example 6, 1-(R)-{[Ac-(R)Phe-(N-cyclohexyl)Gly]amino}-4-(isothioureido)butylboronic Acid Acetate]	much more selective inhibitors of thrombin than DUP 714	8.76	0.29 µM	5.90	2.92 µM	5.82	6.74	7.04	4.96	6.33	

From patent publication US5585360A, “Peptide compounds derived from boronic acid” (Adir et Compagnie, priority 1994, dated 1996)
